Literature values as cited in patent US20130034605A1, “EXTENDED RELEASE PHARMACEUTICAL COMPOSITIONS CONTAINING PALIPERIDONE” (MICRO LABS LIMITED, priority 2011, published 2013).
Read-outs that look alike come from different tables or passages of the source.

In the case of `Cc1nc2n(c(=O)c1CCN1CCC(c3noc4cc(F)ccc34)CC1)CCCC2O` (racemic) [Paliperidone, (RS)-3-[2-[4-(6-fluorobenzo[d]isoxazol-3-yl)-1-piperidyl]ethyl]-7-hydroxy-4-methyl-1,5-diazabicyclo[4.4.0]deca-3,5-dien-2-one], the Solubility (in 0.1 N hydrochloric acid) is listed as “soluble”, the Solubility (in methanol) is listed as “soluble” and the Solubility (in methylene chloride) is listed as “freely soluble”. For the same compound, the Solubility (in water) was “practically insoluble”.
